Data taken from patent US7368467B2, “Ion channel modulators” (Wyeth, priority 2004, dated 2008).

tested on: calcium channel (e.g., L-type, N-type, etc.); assay: HEK assay, whole-cell voltage clamp of calcium channel currents in transiently transfected HEK-293T/17 cells; format: cell-based; conditions: whole-cell patch clamp, holding potential −100 mV, steps to about +10 mV
Description: HEK-293T/17 cells are transiently transfected in a similar manner as described in FuGENE 6 Package Insert Version 7, April 2002, Roche Applied Science, Indianapolis, Ind. The cells are plated at 2.5×10^5 cells in 2 mL in a 6-well plate in incubator for one night and achieve a 30˜40% confluence. In a small sterile tube, add sufficient serum-free medium as diluent for FuGENE Transfection Reagent (Roche Applied Science, Indianapolis, Ind.), to a total volume of 100 μL. Add 3 μL of FuGENE 6 Reagent directly into this medium. The mixture is tapped gently to mix. 2 μg of DNA solution (0.8-2.0 μg/μL) is added to the prediluted FuGENE 6 Reagent from above. The DNA/Fugene 6 mixture is gently pipeted to mix the contents and incubated for about 15 minutes at room temperature. The complex mixture is then added to the HEK-293T/17 cells, distributing it around the well, and swirled to ensure even dispersal. The cells are returned to the incubator for 24 hrs. The transfected cells are then replated at density 2.5×10^5 in a 35 mm dish with 5 glass coverslips and grow in low serum(1%) media for 24 hrs. Coverslips with isolated cells are then transferred into chamber and calcium channel (e.g., L-type, N-type, etc.) current or other currents for counter screening are recorded from the transiently transfected HEK-293T/1 7 cells.
The whole-cell voltage clamp configuration of the patch clamp technique is employed to evaluate voltage-dependent calcium currents essentially as described by Thompson and Wong (1991) J. Physiol., 439: 671-689. To record calcium channel (e.g., L-type, N-type, etc.) currents for evaluation of inhibitory potency of compounds (steady-state concentration-response analysis), five pulses of 20-30 ms voltage steps to about +10 mV (the peak of the current voltage relationship) are delivered at five Hz every 30 second from a holding potential at −100 mV. Compound evaluations were carried out essentially as described by Sah D W and Bean B P (1994) Mol Pharmacol. 45(1):84-92. Table 3 contains IC50's for representative compounds.

First: Cc1ccc(F)cc1-c1cnc(SCc2nc3ccccc3[nH]2)n1-c1ccc(Cl)cc1 [Compound 13]
Second: COc1ccc(OC)c(-c2cnc(SCc3nc4ccccc4[nH]3)n2-c2ccc(Cl)cc2)c1 [Compound 7]
The IC50 of the first is 2.4-fold lower: 328 nM for the first, 793 nM for the second. The first is the more potent here.

`COc1ccccc1-c1cnc(SCc2cnc(C)s2)n1-c1ccc(Cl)cc1` [Compound 8] showed an IC50 of 187 nM.

tested on: calcium channels (e.g., Cav2.2 subfamily); assay: Oocyte assay, calcium channel modulation in Xenopus oocyte heterologous expression system; format: cell-based; conditions: calcium channel (e.g., Cav2.2 subfamily)
Description: Representative compounds of the formulae herein are screened for activity against calcium channel targets in an assay essentially as described in Neuron January 1997, 18(11): 153-166, Lin et. al.; J. Neurosci. Jul. 1, 2000, 20(13):4768-75, J. Pan and D. Lipsombe; and J. Neurosci., Aug. 15, 2001, 21(16):5944-5951, W. Xu and D. Lipscombe, using Xenopus oocyte heterologeous expression system. The assay is performed on various calcium channels (e.g., Cav2.2subfamily) whereby the modulation of the calcium channel is measured for each compound. Table 2 contains IC50's for representative compounds disclosed in the invention.

`COc1ccc(-n2c(-c3ccc(F)cc3)cnc2SCC(=O)NCc2ccco2)cc1` [Compound 234] and `Cc1ccc(-n2c(-c3ccc(F)cc3)cnc2SCc2nc3ccccc3[nH]2)cc1` [Compound 4] are within 1.5-fold of each other in IC50: 5.4 µM for the first, 5.7 µM for the second.

`Cc1ccc(-n2c(-c3ccccc3)cnc2SCc2nc3ccccc3[nH]2)cc1` [Compound 2] was tested, and the IC50 was 6.63 µM.
